“Also recorded” adds a separate entry of the source.
Legend:
[1] = target: mannose binding protein (MBP) of Acanthamoeba (Acanthamoeba castellanii, UniProt Q6J288); experiment: Solid-phase assay of 35S-labeled Acanthamoeba binding to Man-BSA coated wells; set-up: species or system Acanthamoeba strain MEEI 0184 (A. castellani); conditions: for Inhibition of amoebic binding to Man-BSA / affinity of amoebic lectin: no concentration stated
Description: The Acanthamoeba strain MEEI 0184 (A. castellani based on morphological characteristics) was derived from an infected human cornea and used throughout this study. ATCC strain 30868 should have similar properties. The parasites were axenically cultured in PYG medium. A solid-phase assay characterized the sugar binding properties of the mannose binding protein (MBP) of Acanthamoeba (Z. Yang et al., Infect. Immun. 65:439-445, 1997). Briefly, wells of microtiter plates were coated with bovine serum albumin-α-D-mannopyranosyl phenylisothiocyanate (Man-BSA, 15-25 moles of α-D-mannopyranoside/mole albumin, 0.03 μg/ml, 50μl/well in 0.1 M sodium carbonate buffer, pH 9.6, 4° C. overnight). Nonspecific binding was blocked with 1% BSA in phosphate buffered saline (PBS, 1 hour, room temperature). After adding a 50-μl aliquot of ^35 S-labeled Acanthamoeba (5×10^6 cells/ml in PBS; 1 to 2 cpm/parasite, >95% trophozoites) to each well, the plates were incubated for 2 hours at room temperature. After rinsing the cells with PBS to remove unbound Acanthamoeba, 0.1 ml of 2% sodium dodecyl sulfate (SDS) was added to each well, and the radioactivity in aliquots of solubilized material was determined in a scintillation counter.

[2] = system: Acanthamoeba-conditioned medium (ACM); experiment: CPE assay with Acanthamoeba-conditioned medium (ACM); assay type: cell-based
Procedure: To determine whether the mechanism modulating the CPE produced by intact amoeba and amoeba-conditioned medium (ACM) are distinct, CPE and assays were also performed using ACM in the presence and the absence of saccharides. To produce ACM, exponentially growing parasites (>95% trophozoites) in PYG media (Proteose Peptone-yeast extract-glucose , J. T. Bornes et al., J. Parasitol. 56:904-906, 1970) were rinsed twice with SFB medium and incubated in serum-free SFB medium at concentrations between 2×10^5 to 1×10^6 cells/ml in a CO2 incubator for 24 hours. After removing the parasites by centrifugation, each supernatant was analyzed for its ability to induce CPE. Saccharides (α-Man and GIcNAc, 50 mM) were added either to the ACM after it was produced or to serum-free medium used to produce an ACM. The ACM produced in the presence of the saccharides was also analyzed after removal of the saccharides by centrifugation through Centricon 3 microconcentrators (Amicon Inc., Beverly, Mass.).
To determine the role of the parasitic secretory factors in the cytopathogenic mechanism, chromium release and CPE assays were performed using ACM. In this study, parasites were incubated in the SFB media for 24 hours, centrifuged to remove parasites and the conditioned medium was tested for its ability to produce cytolysis and CPE. The ACM produced remarkable CPE. […] Approximately 6 to 8 hours following the incubation of the monolayer with the ACM, the cell sheet at the edges of the monolayer began to lift and roll inwards and eventually the entire monolayer lifted en bloc from the dish. These observations were similar to those seen when the monolayers were incubated with trophozoites in the presence of α-Man. Unlike the CPE induced by intact amoeba, the CPE induced by the ACM was not inhibited by either α-Man or GlcNAc when the sugars were added to the ACM after it was produced. In the next set of experiments, ACM was produced in the presence of α-Man or GIcNAc and was tested for CPE-inducing activity. […] In addition, the filtrate and retentate obtained after filtering the ACM in Centricon 3 microconcentrators were tested for CPE-inducing activity. When the ACM was produced in the absence of either sugar, substantially all of the CPE-inducing activity was found in the retentate obtained after Centricon filtration.

proteinases P2 and P3 = experiment: Zymography of media conditioned by amoebae with primary corneal epithelium, with or without α-Man; assay type: cell-based, Acanthamoeba; conditions: amoebae with host cells, adhesion blocked by saccharide
Procedure: To characterize the mechanism by which the mannose-mediated host-parasite interactions influence the amoeba-induced cytolysis and/or cytopathic effect, conditioned media obtained by incubating amoebae with primary cultures of corneal epithelium in the presence and absence of α-Man for 6 to 8 hours were analyzed by zymography. Media conditioned by only Acanthamoeba or only epithelial cells were also analyzed. Zymography was performed using separating gels containing 10% acrylamide and 2 mg/ml gelatin, essentially as described by D. E. Kleiner et al. (Anal Biochem. 218:325-329, 1994). Samples were diluted in the electrophoresis sample buffer (U. K. Laemmli, Nature 227:680-685, 1970) without mercaptoethanol and were applied to the gels. After electrophoresis, proteinases separated on the gels were renatured by incubating the gels in 2.5% Triton X-100 in 50 mM Tris-HCl, pH 7.5 to remove SDS. After incubating the gels for 18 hours in a developing buffer (50 mM Tris-HCl, pH 7.5 containing 10 mM CaCl2), the gels were stained with Coomassie brilliant blue. Areas of digestion were visualized as non-staining regions. In some experiments, samples were pre-treated with phenylmethylsulfonyl fluoride (PMSF, 1 mM), an inhibitor of […] for one hour prior to electrophoresis, or 1,10-phenanthroline (1 mM), an inhibitor of metalloproteinases, was added to the developing buffer.

Sequence of mannose binding protein (MBP) of Acanthamoeba (Q6J288 entry or part of it): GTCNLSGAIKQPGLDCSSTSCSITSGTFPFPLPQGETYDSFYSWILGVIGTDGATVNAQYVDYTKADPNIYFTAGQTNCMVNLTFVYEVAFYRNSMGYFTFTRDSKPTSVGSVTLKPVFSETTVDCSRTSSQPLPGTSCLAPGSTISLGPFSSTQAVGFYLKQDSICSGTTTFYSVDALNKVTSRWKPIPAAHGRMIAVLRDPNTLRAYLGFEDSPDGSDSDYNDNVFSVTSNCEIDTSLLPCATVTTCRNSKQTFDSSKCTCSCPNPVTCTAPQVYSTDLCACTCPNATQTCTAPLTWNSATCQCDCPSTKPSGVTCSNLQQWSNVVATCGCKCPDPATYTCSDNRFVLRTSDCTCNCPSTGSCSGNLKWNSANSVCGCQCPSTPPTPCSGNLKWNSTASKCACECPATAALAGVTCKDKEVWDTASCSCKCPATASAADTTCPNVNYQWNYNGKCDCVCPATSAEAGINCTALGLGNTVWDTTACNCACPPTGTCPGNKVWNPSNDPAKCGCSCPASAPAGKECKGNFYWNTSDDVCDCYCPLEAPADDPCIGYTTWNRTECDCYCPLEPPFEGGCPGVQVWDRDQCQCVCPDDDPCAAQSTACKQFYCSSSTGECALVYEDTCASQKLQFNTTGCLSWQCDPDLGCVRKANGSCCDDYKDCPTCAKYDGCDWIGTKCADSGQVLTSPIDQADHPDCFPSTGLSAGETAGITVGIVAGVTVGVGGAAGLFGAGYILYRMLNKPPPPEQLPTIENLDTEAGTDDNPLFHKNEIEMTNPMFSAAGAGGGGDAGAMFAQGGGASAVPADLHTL

CO[C@H]1O[C@H](CO)[C@@H](O)[C@H](O)[C@@H]1O [Methyl-α-D-mannopyranoside]
Relative inhibitory potency in binding to Man-BSA ([1]; comparator named in the value, listed as α-Man): ten times that of D-mannose; also recorded: eight times that of β-Man | Inhibition of amoebic binding to Man-BSA / affinity of amoebic lectin ([1]; listed as Methyl-α-mannopyranoside): potent inhibitors | Inhibition of amoebic binding to Man-BSA / affinity of amoebic lectin ([1]; listed as α-Man): highest affinity | CPE-inducing activity of ACM produced in SFB containing the saccharide ([2]; saccharide 50 mM in medium used to produce ACM): strongly induced CPE | Inhibition of ACM-induced CPE ([2]; sugar (50 mM) added to the ACM after it was produced): not inhibited | Expression of proteinase P2 (97 kD) (proteinases P2 and P3): robustly expressed | Expression of proteinase P3 (80 kD) (proteinases P2 and P3; listed as α-Man): not expressed; also recorded: not detected

From patent publication US6037333A, “Microbe-inhibiting compositions” (Trustees of Tufts College, priority 1998, dated 2000)
